Common to all, as to type: in vivo
For test [1], the system named is Matricaria inodora. Nature of the test: Post-emergence herbicidal action. Conditions: 320 g/ha, rated after about 3 weeks, 100% = plants have died, 0% = like control plants. On the procedure: (§1) Seeds of monocotyledonous and dicotyledonous weeds and crop plants were placed in sandy loam in plastic or wood-fiber pots, covered with soil and cultivated in a greenhouse under controlled growth conditions. 2 to 3 weeks after sowing, the test plants were treated at the one-leaf stage. The compounds of the invention, formulated in the form of wettable powders (WP) or as emulsion concentrates (EC), were then sprayed onto the green parts of the plants as aqueous suspension or emulsion with addition of 0.5% additive at a water application rate of 600 l/ha (converted). After the test plants had been kept in the greenhouse under optimum growth conditions for about 3 weeks, the activity of the preparations was rated visually in comparison to untreated controls. For example, 100% activity=the plants have died, 0% activity=like control plants. Tables B1 to B6 below show the effects of selected compounds of the general formula (I) according to Table A1 at an application rate of 320 g/ha on various harmful plants, which were obtained by the aforementioned experimental procedure.

In another test the test system is Ipomoea purpurea. The experiment in a line: Post-emergence herbicidal action. Conditions: 320 g/ha, rated after about 3 weeks, 100% = plants have died, 0% = like control plants. On the procedure:
as §1

The test system of test [2] is Stellaria media. The experiment in a line: Post-emergence herbicidal action. Conditions: 320 g/ha, rated after about 3 weeks, 100% = plants have died, 0% = like control plants. The method, then:
as §1

Test [3] concerns Viola tricolor. The experiment in a line: Post-emergence herbicidal action. The following applies: 320 g/ha, rated after about 3 weeks, 100% = plants have died, 0% = like control plants. On the procedure: as §1
Test [4] has as its system Amaranthus retroflexus. The experiment in a line: Post-emergence herbicidal action. The following applies: 320 g/ha, rated after about 3 weeks, 100% = plants have died, 0% = like control plants. The method, then:
as §1

For a further test, the system named is Veronica persica. The experiment in a line: Pre-emergence herbicidal action. Conditions: 320 g/ha, scored after about 3 weeks, 100% = plants have died, 0% = like control plants. An excerpt:
(§2) Seeds of monocotyledonous and dicotyledonous weed plants and crop plants were placed in plastic or wood-fiber pots and covered with soil. The compounds of the invention, formulated in the form of wettable powders (WP) or as emulsion concentrates (EC), were then applied to the surface of the covering soil as aqueous suspension or emulsion with addition of 0.5% additive at a water application rate equivalent to 600 l/ha. After the treatment, the pots were placed in a greenhouse and kept under good growth conditions for the test plants. After about 3 weeks, the effect of the preparations is scored visually in comparison with untreated controls as percentages. For example, 100% activity=the plants have died, 0% activity=like control plants. Tables B7 to B11 below show the effects of selected compounds of the general formula (I) according to Table A1 at an application rate of 320 g/ha on various harmful plants, which were obtained by the aforementioned experimental procedure.

Test [5] relates to Matricaria inodora. The experiment in a line: Pre-emergence herbicidal action. Conditions: 320 g/ha, scored after about 3 weeks, 100% = plants have died, 0% = like control plants.
Description: as §2

In test [6] the test system is Stellaria media. Nature of the test: Pre-emergence herbicidal action. The following applies: 320 g/ha, scored after about 3 weeks, 100% = plants have died, 0% = like control plants.
Description: as §2

In test [7] the test system is Amaranthus retroflexus. The experiment in a line: Pre-emergence herbicidal action. The following applies: 320 g/ha, scored after about 3 weeks, 100% = plants have died, 0% = like control plants.
Description: as §2

Test [8] concerns Viola tricolor. Nature of the test: Pre-emergence herbicidal action. Conditions: 320 g/ha, scored after about 3 weeks, 100% = plants have died, 0% = like control plants.
Description: as §2

Each structure is given as a SMILES string.

On to `Cc1ccc(Cl)cc1NC(=O)c1c(C)nn(C)c1-c1ccc(F)cc1Cl` [I-009], for which the “herbicidal activity on Matricaria inodora (visual rating vs untreated controls)” value with Matricaria inodora [1] and in the test on Matricaria inodora [5] was 100% each time. Besides, in the test with Ipomoea purpurea, the “herbicidal activity on Ipomoea purpurea (visual rating vs untreated controls)” value worked out at 100%. Also, the “herbicidal activity on Stellaria media (visual rating vs untreated controls)” value in the test with Stellaria media [2] and in the test with Stellaria media [6] was 100% throughout. In addition, the “herbicidal activity on Viola tricolor (visual rating vs untreated controls)” value in the test with Viola tricolor [3] is given as 100%. Moreover, the “herbicidal activity on Amaranthus retroflexus (visual rating vs untreated controls)” value in the test on Amaranthus retroflexus [4] and with Amaranthus retroflexus [7] was 100% each time. Besides, in the test with Veronica persica, the “herbicidal activity on Veronica persica (visual rating vs untreated controls)” value is given as 100%.

As to `Cc1nn(C)c(-c2ccc(F)cc2Cl)c1C(=O)Nc1cc(Cl)cc(Cl)c1` [I-020], the entries for the “herbicidal activity on Viola tricolor (visual rating vs untreated controls)” value in the test on Viola tricolor [3] and in the test on Viola tricolor [8] were 100% and 80%, respectively. In addition, the “herbicidal activity on Amaranthus retroflexus (visual rating vs untreated controls)” value in the test with Amaranthus retroflexus [4] and in the test with Amaranthus retroflexus [7] was 100% throughout. The “herbicidal activity on Matricaria inodora (visual rating vs untreated controls)” value with Matricaria inodora [5] worked out at 100%. The “herbicidal activity on Stellaria media (visual rating vs untreated controls)” value in the test on Stellaria media [6] was 90%.

With `Cc1nn(C)c(-c2ccc(F)cc2Cl)c1C(=O)Nc1cccc(Cl)c1` [I-001], the entries for the “herbicidal activity on Matricaria inodora (visual rating vs untreated controls)” value in the test on Matricaria inodora [1] and with Matricaria inodora [5] were 90% and 100%, respectively. For the same compound, the “herbicidal activity on Ipomoea purpurea (visual rating vs untreated controls)” value in the test on Ipomoea purpurea amounted to 100%. In addition, the “herbicidal activity on Stellaria media (visual rating vs untreated controls)” value with Stellaria media [2] and in the test with Stellaria media [6] was 100% each time. Further, in the test on Viola tricolor [3], the “herbicidal activity on Viola tricolor (visual rating vs untreated controls)” value came to 100%. The “herbicidal activity on Amaranthus retroflexus (visual rating vs untreated controls)” value in the test on Amaranthus retroflexus [4] and with Amaranthus retroflexus [7] was 100% each time. Besides, the “herbicidal activity on Veronica persica (visual rating vs untreated controls)” value in the test on Veronica persica turned out to be 100%.

Regarding `Cc1nn(C)c(-c2ccc(F)cc2Cl)c1C(=O)Nc1cccc(F)c1` [I-027], the “herbicidal activity on Matricaria inodora (visual rating vs untreated controls)” value with Matricaria inodora [1] and with Matricaria inodora [5] was 100% each time. Also, in the test with Ipomoea purpurea, the “herbicidal activity on Ipomoea purpurea (visual rating vs untreated controls)” value is given as 100%. Further, the “herbicidal activity on Stellaria media (visual rating vs untreated controls)” value in the test on Stellaria media [2] and in the test on Stellaria media [6] was 100% each time. Also, the “herbicidal activity on Viola tricolor (visual rating vs untreated controls)” value in the test with Viola tricolor [3] is recorded as 100%. The “herbicidal activity on Amaranthus retroflexus (visual rating vs untreated controls)” value in the test with Amaranthus retroflexus [4] and in the test with Amaranthus retroflexus [7] was 100% in each case. Besides, the “herbicidal activity on Veronica persica (visual rating vs untreated controls)” value in the test on Veronica persica was found to be 100%.

For `Cc1nn(C)c(-c2ccc(F)cc2Cl)c1C(=O)Nc1ccccc1` [I-002], the “herbicidal activity on Matricaria inodora (visual rating vs untreated controls)” value in the test with Matricaria inodora [1] and in the test with Matricaria inodora [5] was 100% throughout. Besides, the “herbicidal activity on Ipomoea purpurea (visual rating vs untreated controls)” value in the test with Ipomoea purpurea came to 80%. For the same compound, the “herbicidal activity on Stellaria media (visual rating vs untreated controls)” value with Stellaria media [2] and in the test on Stellaria media [6] was 100% in each case. Further, the “herbicidal activity on Viola tricolor (visual rating vs untreated controls)” value with Viola tricolor [3] and in the test on Viola tricolor [8] was 100% each time. Besides, the “herbicidal activity on Amaranthus retroflexus (visual rating vs untreated controls)” value with Amaranthus retroflexus [4] and in the test with Amaranthus retroflexus [7] was 100% each time.

On to `Cc1nn(C)c(-c2ccc(F)cc2Cl)c1C(=O)Nc1cccnc1F` [I-031], for which the “herbicidal activity on Stellaria media (visual rating vs untreated controls)” value is on record as 100% in the test with Stellaria media [2] and 90% with Stellaria media [6]. In addition, the “herbicidal activity on Viola tricolor (visual rating vs untreated controls)” value is recorded as 100% in the test with Viola tricolor [3] and 80% in the test on Viola tricolor [8]. Also, the “herbicidal activity on Amaranthus retroflexus (visual rating vs untreated controls)” value in the test on Amaranthus retroflexus [4] and with Amaranthus retroflexus [7] was 100% throughout. Further, the “herbicidal activity on Matricaria inodora (visual rating vs untreated controls)” value with Matricaria inodora [5] is 100%.

For `Cc1nn(C)c(-c2ccc(F)cc2Cl)c1C(=O)Nc1c(Cl)cccc1Cl` [I-013], the “herbicidal activity on Matricaria inodora (visual rating vs untreated controls)” value in the test with Matricaria inodora [1] and in the test on Matricaria inodora [5] was 100% in each case. Moreover, the “herbicidal activity on Ipomoea purpurea (visual rating vs untreated controls)” value in the test on Ipomoea purpurea stood at 100%. Also, the “herbicidal activity on Stellaria media (visual rating vs untreated controls)” value with Stellaria media [2] and in the test on Stellaria media [6] was 100% throughout. For the same compound, the “herbicidal activity on Viola tricolor (visual rating vs untreated controls)” value with Viola tricolor [3] was 100%. The “herbicidal activity on Amaranthus retroflexus (visual rating vs untreated controls)” value with Amaranthus retroflexus [4] and in the test with Amaranthus retroflexus [7] was 100% throughout. In addition, in the test on Veronica persica, the “herbicidal activity on Veronica persica (visual rating vs untreated controls)” value is given as 100%.

As to `Cc1cccc(Cl)c1NC(=O)c1c(C)nn(C)c1-c1ccc(F)cc1Cl` [I-028], the “herbicidal activity on Matricaria inodora (visual rating vs untreated controls)” value with Matricaria inodora [1] and in the test with Matricaria inodora [5] was 100% throughout. Besides, the “herbicidal activity on Ipomoea purpurea (visual rating vs untreated controls)” value with Ipomoea purpurea amounted to 100%. For the same compound, the “herbicidal activity on Stellaria media (visual rating vs untreated controls)” value with Stellaria media [2] and in the test on Stellaria media [6] was 100% throughout. In addition, the “herbicidal activity on Viola tricolor (visual rating vs untreated controls)” value with Viola tricolor [3] amounted to 100%. Besides, the “herbicidal activity on Amaranthus retroflexus (visual rating vs untreated controls)” value with Amaranthus retroflexus [4] and with Amaranthus retroflexus [7] was 100% throughout. The “herbicidal activity on Veronica persica (visual rating vs untreated controls)” value in the test on Veronica persica came out at 100%.

For the compound `Cc1nn(C)c(-c2ccc(F)cc2Cl)c1C(=O)Nc1ccccc1F` [I-006], the “herbicidal activity on Stellaria media (visual rating vs untreated controls)” value in the test with Stellaria media [2] and in the test with Stellaria media [6] was 100% in each case. Further, the “herbicidal activity on Viola tricolor (visual rating vs untreated controls)” value with Viola tricolor [3] and with Viola tricolor [8] was 100% in each case. The “herbicidal activity on Amaranthus retroflexus (visual rating vs untreated controls)” value with Amaranthus retroflexus [4] and in the test with Amaranthus retroflexus [7] was 100% in each case. Moreover, in the test on Matricaria inodora [5], the “herbicidal activity on Matricaria inodora (visual rating vs untreated controls)” value is 90%.

For `Cc1nn(C)c(-c2ccc(F)cc2Cl)c1C(=O)Nc1cc(Cl)ccc1F` [I-021], the “herbicidal activity on Stellaria media (visual rating vs untreated controls)” value in the test on Stellaria media [2] and in the test with Stellaria media [6] was 100% throughout. The “herbicidal activity on Viola tricolor (visual rating vs untreated controls)” value in the test on Viola tricolor [3] and in the test with Viola tricolor [8] was 100% throughout. For the same compound, the “herbicidal activity on Amaranthus retroflexus (visual rating vs untreated controls)” value in the test on Amaranthus retroflexus [4] and in the test with Amaranthus retroflexus [7] was 100% each time. For the same compound, the “herbicidal activity on Matricaria inodora (visual rating vs untreated controls)” value in the test on Matricaria inodora [5] was found to be 100%.

In the case of `Cc1nn(C)c(-c2ccc(F)cc2Cl)c1C(=O)Nc1cncc(F)c1` [I-032], the “herbicidal activity on Matricaria inodora (visual rating vs untreated controls)” value with Matricaria inodora [1] and in the test on Matricaria inodora [5] was 100% in each case. For the same compound, the “herbicidal activity on Ipomoea purpurea (visual rating vs untreated controls)” value with Ipomoea purpurea was 90%. Moreover, the “herbicidal activity on Stellaria media (visual rating vs untreated controls)” value with Stellaria media [2] worked out at 100%. For the same compound, the “herbicidal activity on Viola tricolor (visual rating vs untreated controls)” value in the test on Viola tricolor [3] is listed as 100%. The “herbicidal activity on Amaranthus retroflexus (visual rating vs untreated controls)” value in the test with Amaranthus retroflexus [4] and in the test with Amaranthus retroflexus [7] was 100% throughout.

On to `Cc1nn(C)c(-c2ccc(F)cc2Cl)c1C(=O)Nc1c(F)cc(F)cc1F` [I-025], for which the “herbicidal activity on Matricaria inodora (visual rating vs untreated controls)” value in the test with Matricaria inodora [1] and with Matricaria inodora [5] was 100% in each case. The “herbicidal activity on Ipomoea purpurea (visual rating vs untreated controls)” value in the test on Ipomoea purpurea was 80%. The “herbicidal activity on Stellaria media (visual rating vs untreated controls)” value in the test on Stellaria media [2] is 90%; in the test on Stellaria media [6], 100%. In addition, the “herbicidal activity on Viola tricolor (visual rating vs untreated controls)” value in the test on Viola tricolor [3] and with Viola tricolor [8] was 100% in each case. Further, the “herbicidal activity on Amaranthus retroflexus (visual rating vs untreated controls)” value in the test with Amaranthus retroflexus [4] and in the test on Amaranthus retroflexus [7] was 100% throughout.

The values above are taken from patent publication US20200172491A1, “SUBSTITUTED 5-(HET-)ARYLPYRAZOLAMIDES AND SALTS THEREOF AND THEIR USE AS HERBICIDAL ACTIVE SUBSTANCES” (Bayer CropScience Aktiengesellschaft, priority 2017, published 2020).
